ChEMBL document CHEMBL5120898, “Bathiapeptides: Polythiazole-Containing Peptides from a Marine Biofilm-Derived Bacillus sp” (J Nat Prod, 2022)

Assays:
Assay type in all cases: functional, cell-based
MCF7 = assay: Cytotoxicity against human MCF7 cells assessed as inhibition of cell growth incubated for 24 hrs by MTT assay; details: MCF7, 24 h
MGC-803 = assay: Cytotoxicity against human MGC-803 cells assessed as inhibition of cell growth incubated for 24 hrs by MTT assay; details: MGC-803, 24 h
HepG2 = assay: Cytotoxicity against human HepG2 cells assessed as inhibition of cell growth incubated for 24 hrs by MTT assay; details: HepG2, 24 h
HeLa = assay: Cytotoxicity against human HeLa cells assessed as inhibition of cell growth incubated for 24 hrs by MTT assay

## CC[C@H](C)[C@H](NC(=O)[C@H](N)Cc1ccccc1)C(=O)N[C@H](C)c1nc(-c2nc(-c3nc(C(=O)O)cs3)cs2)cs1
MCF7
  IC50: > 50 µM
MGC-803
  IC50: > 50 µM
HepG2
  IC50: > 50 µM
HeLa
  IC50: > 50 µM

## CC[C@H](C)[C@@H]1NC(=O)[C@@H](Cc2ccccc2)NC(=O)c2csc(n2)-c2csc(n2)-c2csc(n2)[C@@H](CO)NC1=O
MCF7
  IC50: 12.4 µM
MGC-803
  IC50: 15.7 µM
HepG2
  IC50: > 50 µM
HeLa
  IC50: 16.3 µM

## CC[C@H](C)[C@@H]1NC(=O)[C@@H](Cc2ccccc2)NC(=O)c2csc(n2)-c2csc(n2)-c2csc(n2)[C@@H](C)NC1=O
MCF7
  IC50: 0.5 µM
MGC-803
  IC50: 0.8 µM
HepG2
  IC50: 4.1 µM
HeLa
  IC50: 1.5 µM

## CC(C)[C@@H]1NC(=O)[C@@H](Cc2ccccc2)NC(=O)c2csc(n2)-c2csc(n2)-c2csc(n2)[C@@H](C)NC1=O
MCF7
  IC50: 3 µM
MGC-803
  IC50: 2.9 µM
HepG2
  IC50: 5 µM
HeLa
  IC50: 8 µM

## CC[C@H](C)[C@H](NC(=O)[C@@H](Cc1ccccc1)NC(C)=O)C(=O)N[C@H](C)c1nc(-c2nc(-c3nc(C(=O)O)cs3)cs2)cs1
MCF7
  IC50: > 50 µM
MGC-803
  IC50: > 50 µM
HepG2
  IC50: > 50 µM
HeLa
  IC50: > 50 µM

## CC[C@H](C)[C@@H]1NC(=O)[C@@H](Cc2ccccc2)NC(=O)c2csc(n2)-c2csc(n2)[C@@H](C)NC1=O
MCF7
  IC50: > 50 µM
MGC-803
  IC50: > 50 µM
HepG2
  IC50: > 50 µM
HeLa
  IC50: > 50 µM

## CC[C@H](C)[C@@H]1NC(=O)[C@@H](Cc2ccccc2)NC(=O)c2csc(n2)-c2csc(n2)-c2csc(n2)[C@H](C)NC1=O
MCF7
  IC50: 10 µM
MGC-803
  IC50: 16.4 µM
HepG2
  IC50: 13.1 µM
HeLa
  IC50: 29.6 µM

## CC[C@H](C)[C@@H]1NC(=O)[C@@H](Cc2ccccc2)NC(=O)c2csc(n2)-c2csc(n2)-c2csc(n2)CNC1=O
MCF7
  IC50: 2.4 µM
MGC-803
  IC50: 5.8 µM
HepG2
  IC50: 4.5 µM
HeLa
  IC50: 4.6 µM
